Assay results from ChEMBL document CHEMBL1139557, “Synthesis and relative bioavailability of meptazinol benzoyl esters as prodrugs” (Bioorg Med Chem Lett, 2005).

What was measured:
[1] = (§1) Bioavailability in rat; format: ADME, organism-based; details: in vivo
[2] = as §1; format: ADME, organism-based; details: in vivo; remark: listed apart in the source
[3] = as §1; format: ADME, organism-based; details: in vivo; remark: listed apart in the source
[4] = as §1; format: ADME, organism-based; details: in vivo; remark: listed apart in the source
[5] = as §1; format: ADME, organism-based; details: in vivo; remark: listed apart in the source
[6] = as §1; format: ADME, organism-based; details: in vivo; remark: listed apart in the source
Mus musculus [7] = test: Analgesic activity in hot plate test when dosed at 100 umol/kg intraperitoneally; format: functional
Mus musculus [8] = test: Analgesic activity against mice in acetylcholine induced mice writhing test when dosed at 50 umol/kg (ig) administration after 40 min; format: functional
Mus musculus [9] = test: Analgesic activity against mice in acetylcholine induced mice writhing test when dosed at 50 umol/kg (ig) administration after 80 min; format: functional
Mus musculus [10] = test: Analgesic activity against mice in hot plate test when dosed at 100 umol/kg intraperitoneally; format: functional
[11] = Relative bioavailability in jejunum closed loop study in rats; Mean of 4 exp; format: ADME, organism-based; details: rat, in vivo, other
[12] = Relative bioavailability in stomach closed loop study in rats; Mean of 4 exp; format: ADME, organism-based; details: rat, in vivo; read-out: Relative Bioavailability

CCC1(c2cccc(OC(=O)c3c(C)cccc3N)c2)CCCCN(C)C1 (stereo unspecified)
bioavailability [1]: 136%
F [2]: 174.27%
bioavailability [3]: 120%
F [4]: 167.97%
bioavailability [5]: 130%
bioavailability [6]: 149%

CCC1(c2cccc(OC(=O)c3ccccc3)c2)CCCCN(C)C1 (stereo unspecified)
bioavailability [1]: 112%
Activity (Mus musculus [7]): 4
Activity (Mus musculus [8]): 2
Activity (Mus musculus [9]): 2
bioavailability [2]: 58.1%
bioavailability [3]: 53.9%
bioavailability [4]: 81.6%
bioavailability [5]: 75.4%
bioavailability [6]: 133%

CCC1(c2cccc(OC(=O)c3ccccc3N)c2)CCCCN(C)C1 (stereo unspecified)
bioavailability [1]: 107%
Activity (Mus musculus [8]): 1
Activity (Mus musculus [9]): 0
Activity (Mus musculus [10]): 3
bioavailability [2]: 101%
F [3]: 183.64%
bioavailability [4]: 81.9%
bioavailability [5]: 59.8%
bioavailability [6]: 80.4%

CCC1(c2cccc(OC(=O)c3c(C)cccc3N)c2)CCCCN(C)C1.Cl (stereo unspecified)
Relative Bioavailability [11]: 562.72%
bioavailability [12]: 65.4%
